Data as given in publication PMC6973011, “Stafia‐1: a STAT5a‐Selective Inhibitor Developed via Docking‐Based Screening of in Silico O‐Phosphorylated Fragments” (Chemistry (Weinheim an Der Bergstrasse, Germany), 2019).
Positions count from the first letter of the chain named.

Tests used:
STAT3 = STAT3 (Homo sapiens, UniProt P40763); test: Fluorescence polarization competitive binding assay, STAT3 SH2 domain; settings: read-out: STAT3 inhibition at 200 μM
Description: Expression and purification of STAT1, STAT3, STAT4, STAT5a, STAT5b, STAT5a Trp566Arg, STAT5b Arg566Trp, STAT5b 6M, STAT5b 7M, STAT6, and Lck have previously been described.[4, 12] STAT proteins were purified over a single His-Bind resin (Millipore) column.
Wild-type and mutant STAT5a/b proteins used for activity analysis of 20 were purified over two successive His-Bind resin columns.[4, 13]
Fluorescence Polarization assays
Competitive binding assays based on fluorescence polarization were essentially carried out as described.[14] Unless stated otherwise, the following final concentration of proteins were used:
STAT4; 105 nM for STAT6; 30 nM for Lck. Final concentration of all peptides: 10 nM. Peptides used: 5-carboxyfluorescein-GpYLVLDKW for STAT5a/b and point mutants thereof; 5-carboxyfluorescein-GpYLPQTV-NH2 for STAT3; 5-carboxyfluorescein-GpYDKPHVL for STAT1; 5-carboxyfluorescein-GpYLPQNID-OH for STAT4; 5-carboxyfluorescein-
analysis of 20 against wild-type (wt) STAT5a/b and STAT5a/b point mutants, the following concentrations of double-purified protein were used, which reflect the approximate Kd values of the interactions with 5-carboxyfluorescein-GpYLVLDKW: STAT5a wt: 147 nM; STAT5b wt:
STAT5b 6M: 80 nM; STAT5b 7M: 282 nM. Assay buffer: 10 mM Tris (pH 8.0), 50 mM NaCl, 1 mM EDTA, 1 mM DTT, 0.1 % Nonidet P-40 substitute, and 2 % DMSO in water. A major part of the pipetting was done using a Biomek FXp sceening robot (Beckman-Coulter). Protein and test compounds were incubated for 1 h, followed by addition of the fluorescein-labeled peptide.
Fluorescence polarization was measured after another hour using an Infinite F500 plate reader (Tecan). IC50 values were converted to Ki-values using the published equation.[15]

[1] = target: T1, STAT5a Trp566Arg/Lys644Met (Homo sapiens, UniProt P42229, K644M/W566R); test: Fluorescence polarization assay, double mutant STAT5a Trp566Arg/Lys644Met; assay type: binding; settings: FP assay
T1 construct: made in house
T1 sequence (P42229 1-794 W566R/K644M): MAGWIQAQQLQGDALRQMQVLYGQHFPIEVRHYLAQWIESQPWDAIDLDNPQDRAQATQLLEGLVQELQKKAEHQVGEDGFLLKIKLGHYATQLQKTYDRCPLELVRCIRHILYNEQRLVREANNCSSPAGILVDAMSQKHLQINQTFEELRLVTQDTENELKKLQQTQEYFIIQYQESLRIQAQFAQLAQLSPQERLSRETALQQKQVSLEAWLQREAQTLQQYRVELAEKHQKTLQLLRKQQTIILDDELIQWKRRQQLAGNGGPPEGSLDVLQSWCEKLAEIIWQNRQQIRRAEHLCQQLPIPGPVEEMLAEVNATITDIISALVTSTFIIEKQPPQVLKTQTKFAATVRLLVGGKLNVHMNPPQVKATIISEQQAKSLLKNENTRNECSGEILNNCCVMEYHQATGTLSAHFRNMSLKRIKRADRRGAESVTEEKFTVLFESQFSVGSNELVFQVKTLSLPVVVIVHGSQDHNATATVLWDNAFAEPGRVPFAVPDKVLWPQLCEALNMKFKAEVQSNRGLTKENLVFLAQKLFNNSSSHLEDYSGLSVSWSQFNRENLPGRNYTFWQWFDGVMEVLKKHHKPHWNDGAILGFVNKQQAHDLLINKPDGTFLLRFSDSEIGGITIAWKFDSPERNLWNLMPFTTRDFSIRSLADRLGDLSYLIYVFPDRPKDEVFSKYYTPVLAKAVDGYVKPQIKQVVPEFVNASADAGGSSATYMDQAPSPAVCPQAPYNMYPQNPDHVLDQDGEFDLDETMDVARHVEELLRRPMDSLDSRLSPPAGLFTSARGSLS

[2] = target: T2, STAT5b Arg566Trp/Met639Asn/Met644Lys (STAT5b‐3M) (Homo sapiens, UniProt P51692, M639N/M644K/R566W); test: Fluorescence polarization assay, triple mutant STAT5b-3M; assay type: binding
T2 construct: made in house
T2 sequence (P51692 1-787 R566W/M639N/M644K): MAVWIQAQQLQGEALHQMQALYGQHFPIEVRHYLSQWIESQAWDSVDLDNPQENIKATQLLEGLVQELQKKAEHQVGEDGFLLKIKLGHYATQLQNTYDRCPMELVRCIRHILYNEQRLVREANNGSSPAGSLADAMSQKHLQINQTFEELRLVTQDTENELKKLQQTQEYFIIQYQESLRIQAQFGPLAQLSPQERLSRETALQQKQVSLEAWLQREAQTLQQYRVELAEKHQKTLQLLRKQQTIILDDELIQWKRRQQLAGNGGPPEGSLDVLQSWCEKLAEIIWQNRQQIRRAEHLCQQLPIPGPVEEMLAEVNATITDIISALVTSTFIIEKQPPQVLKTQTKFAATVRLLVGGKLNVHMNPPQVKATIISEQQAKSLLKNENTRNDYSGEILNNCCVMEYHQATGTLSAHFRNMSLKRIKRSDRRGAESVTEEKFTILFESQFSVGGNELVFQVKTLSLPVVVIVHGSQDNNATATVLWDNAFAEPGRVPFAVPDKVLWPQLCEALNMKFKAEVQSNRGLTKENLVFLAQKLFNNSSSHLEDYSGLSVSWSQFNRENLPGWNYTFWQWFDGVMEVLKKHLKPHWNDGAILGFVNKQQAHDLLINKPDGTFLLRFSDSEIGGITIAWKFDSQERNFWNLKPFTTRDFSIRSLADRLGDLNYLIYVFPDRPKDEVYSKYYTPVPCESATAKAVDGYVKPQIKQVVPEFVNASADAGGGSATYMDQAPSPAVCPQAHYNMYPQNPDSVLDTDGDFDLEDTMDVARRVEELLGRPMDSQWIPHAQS

STAT5b Arg566Trp = target: T3, STAT5b Arg566Trp (Homo sapiens, UniProt P51692, R566W); test: Fluorescence polarization assay, point mutant STAT5b Arg566Trp; assay type: binding; settings: FP assay
T3 construct: made in house
T3 sequence (P51692 1-787 R566W): T2 sequence (P51692 1-787 R566W/M639N/M644K) with N639M, K644M

Sequence of STAT3 (P40763 whole entry, species assumed, the tested form may be a part): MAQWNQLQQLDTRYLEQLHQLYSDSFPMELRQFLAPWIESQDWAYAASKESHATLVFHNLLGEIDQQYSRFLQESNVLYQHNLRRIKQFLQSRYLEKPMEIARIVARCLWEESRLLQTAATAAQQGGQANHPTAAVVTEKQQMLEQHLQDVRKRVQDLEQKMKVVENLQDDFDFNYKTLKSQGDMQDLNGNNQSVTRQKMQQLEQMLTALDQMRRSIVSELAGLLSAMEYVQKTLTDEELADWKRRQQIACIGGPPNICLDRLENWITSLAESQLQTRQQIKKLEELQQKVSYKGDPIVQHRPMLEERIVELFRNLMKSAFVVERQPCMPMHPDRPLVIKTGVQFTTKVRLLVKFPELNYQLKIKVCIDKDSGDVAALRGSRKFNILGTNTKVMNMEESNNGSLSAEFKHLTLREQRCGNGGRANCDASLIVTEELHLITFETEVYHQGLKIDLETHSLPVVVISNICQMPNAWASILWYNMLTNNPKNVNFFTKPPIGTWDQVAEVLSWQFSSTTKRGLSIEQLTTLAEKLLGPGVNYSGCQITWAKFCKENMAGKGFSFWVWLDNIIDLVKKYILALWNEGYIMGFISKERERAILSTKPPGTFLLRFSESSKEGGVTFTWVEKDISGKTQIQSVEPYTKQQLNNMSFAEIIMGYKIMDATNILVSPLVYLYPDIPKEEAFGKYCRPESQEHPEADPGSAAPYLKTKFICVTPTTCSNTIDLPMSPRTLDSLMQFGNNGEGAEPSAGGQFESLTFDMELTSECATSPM

SMILES: COc1cc(-c2cc(OP(=O)(O)O)cc(-c3cc(OC)c(OC)c(OC)c3)c2)cc(OC)c1OC [Compound 20]
- inhibition at 200 µM (STAT3): 27 ± 2%
- inhibition at 200 µM [1]: 44 ± 4%
- IC50 ([2]; FP assay): 101 ± 11 µM
- Ki ([2]; FP assay): 49 ± 5.4 µM
- activity gap between STAT5b-3M and STAT5b-7M ([2]; FP assays): 2.5 fold
- inhibition at 200 µM (STAT5b Arg566Trp): 43 ± 7%
